A word on the IC50: it is the point on the concentration scale where inhibition reaches its midpoint.

Read-outs that look alike come from different tables or passages of the source.

This is an account of results in publication PMC11793105, “A kalihinol analog disrupts apicoplast function and vesicular trafficking in P. falciparum malaria” (Science (New York, N.Y.), 2024).

Test [1] has as its system 3D7 Clone-Kalihinol Treated (MED6-189 resistant line). As to the kind of experiment: SYBR Green dose response, MED6-189-selected resistant line. The class given is cell-based, Plasmodium falciparum. Particulars: resistant line after ~36 months of drug pressure. An excerpt: To assess whether we could use the DMSO melting curves previously established for […] by Dziekan et al. ([49]), we calculated the difference in melting temperatures (ΔTm) between our DMSO dataset and Dziekan’s for 364 proteins for which Tm values were confidently calculated by mineCETSA (table S6).
Fig. 4. […] (C) Schematic representation of the CRISPR-Cas9–based replacement strategy used to introduce a deletion of the targeted repeat regions in the PfSec13 gene. The insertion was achieved through overlap extension polymerase chain reaction (PCR) of fragments directly upstream and downstream of the target segment and subsequently formed by primer overlap extension PCR to replicate the desired deletion. […] (D) Predicted structure of the SEC13 protein highlighting the seven amino acid tandem repeat regions targeted for deletion (red). […] Data were analyzed using a Sigmoidal, 4PL (X represents concentration, n = 3, nonlinear regression, CI: 95%).
(§1) P. falciparum in vitro SYBR green fluorescence-based assays The anti-malarial activity of individual analogues were evaluated in-vitro against P. falciparum 3D7 (MRA-102, drug […]
(§2) green-I based fluorescence assay. Parasite growth rate and stages of development were determined via microscopy through Giemsa-stained smears of the cultures. […]

The test system of test [2] is P. falciparum NF54 (MRA-1000). Description: SYBR Green I growth inhibition assay, NF54. The format is cell-based, Plasmodium falciparum. Particulars: early-ring stage, 72 h exposure. The method, then: (§3) Fig. 1. […] (B) SYBR Green–based dose response assays were conducted on early-ring stage parasites (6 hours after invasion). […] 3D7 WT (blue), NF54 (green), drug-resistant strains Dd2 (red), HB3 (black), W2 (gray), and D10-ACP-GFP (purple) lines (Sigmoidal, 4PL, X is concentration, n ≥ 3, nonlinear regression, CI: 95%). (C) Schematic diagram of the development of P. falciparum after two consecutive erythrocytic cycles. The time points at which MED6-189 was introduced are depicted in green. HPS, hours post synchronization. […] The images depict various developmental stages of the parasite’s intraerythrocytic life cycle. Bordered images represent time points when drug was first introduced (n = 3 biological replicates, P < 0.05).
(§4) Detailed information on materials and methods is available in the supplementary materials. […] P. knowlesi assays were quantitatively measured by flow cytometry using SYBR Green I and Mitrotracker Deep Red, as previously described ([84], [85]), on a Beckman Coulter CytoFLEX. […]
as §1, §2

Test [3] relates to P. falciparum Dd2 (MRA-156). Description: SYBR Green I growth inhibition assay, Dd2. The class given is cell-based. Particulars: Plasmodium falciparum. The method, then: as §3, §4, §1, §2

As to `[C-]#[N+][C@]1(C)CC[C@H]2[C@@H]([C@@H](C(C)C)CC[C@]2(C)[N+]#[C-])[C@H]1O` [MED6-189], the IC50 in test [1] (3D7 Clone-Kalihinol Treated) was 58.1 nM; in test [1] (Plasmodium falciparum, 3D7, 3D7 Clone-Kalihinol Treated), around 60 nM; in test [2] (Plasmodium falciparum, NF54, 72 h) it was 28 ± 5 nM; in test [2], 27 nM; in test [3] (DD2, 72 h), 0.047 ± 0.007 µM; in test [3] (DD2, read-out: IC50 (µM) P. falciparum (Dd2)), 0.017 µM.
